Drawing on ChEMBL document CHEMBL1201862, “PubChem BioAssay data set” (2004), this text covers IC50 and EC50 for four compounds.

Calls of active or inactive are those of the source. For most assays here, no stated cut-off is given here; in the data, actives have a measured IC50 and inactives only a lower limit.

What all share (assay type): functional
In test [1] the target is T1, High affinity choline transporter 1 (Homo sapiens, UniProt Q9GZV3).
T1 sequence (Q9GZV3 whole entry): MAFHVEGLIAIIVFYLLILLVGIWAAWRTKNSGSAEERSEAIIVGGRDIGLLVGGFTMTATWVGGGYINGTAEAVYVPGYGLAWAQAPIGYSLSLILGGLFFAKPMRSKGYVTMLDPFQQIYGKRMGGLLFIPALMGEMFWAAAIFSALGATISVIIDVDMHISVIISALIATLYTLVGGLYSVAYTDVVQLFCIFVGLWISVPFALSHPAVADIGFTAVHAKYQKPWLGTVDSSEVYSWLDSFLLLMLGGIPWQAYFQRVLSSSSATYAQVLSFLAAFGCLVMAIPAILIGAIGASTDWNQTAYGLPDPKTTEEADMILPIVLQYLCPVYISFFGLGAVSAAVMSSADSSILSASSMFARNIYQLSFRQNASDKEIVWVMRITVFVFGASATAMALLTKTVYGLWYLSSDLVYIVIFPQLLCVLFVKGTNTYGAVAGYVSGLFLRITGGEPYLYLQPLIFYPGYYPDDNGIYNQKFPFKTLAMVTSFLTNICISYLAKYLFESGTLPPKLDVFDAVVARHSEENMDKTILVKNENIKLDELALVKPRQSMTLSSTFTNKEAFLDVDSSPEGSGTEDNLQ
Put plainly: human choline transporter blockers, potency – cell-based, 5-point CRC, membrane potential dye, dose response (AID 504840).

Test [2] concerns the target T1, High affinity choline transporter 1. Put plainly: human choline transporter blockers, potency – cell-based, 10-point CRC, membrane potential dye, dose response (AID 588401).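 Further: membrane potential dye fluorescence of choline-evoked depolarization via CHT.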
Test [3] can be described thus: Luminescence Cell-Based Dose Confirmation HTS to Identify Activators of 5'UTR Stem-Loop Driven Alpha-Synuclein mRNA Translation in H4 Neuroglioblastoma Cells. [Related pubchem assays: 1829 (Project Summary), 1814 (Primary HTS)].
The next test concerns H4. Put plainly: Luminescence Cell-Based Dose Response HTS to Identify Activators of 5'UTR Stem-Loop Driven Prion Protein mRNA Translation in H4 Neuroglioblastoma Cells. [Related pubchem assays: 1829 (Project Summary), 1814 (Primary HTS)]. Particulars: Homo sapiens.
The target of test [4] is T2, Caspase-3 (Homo sapiens, UniProt P42574).
T2 sequence (P42574 whole entry): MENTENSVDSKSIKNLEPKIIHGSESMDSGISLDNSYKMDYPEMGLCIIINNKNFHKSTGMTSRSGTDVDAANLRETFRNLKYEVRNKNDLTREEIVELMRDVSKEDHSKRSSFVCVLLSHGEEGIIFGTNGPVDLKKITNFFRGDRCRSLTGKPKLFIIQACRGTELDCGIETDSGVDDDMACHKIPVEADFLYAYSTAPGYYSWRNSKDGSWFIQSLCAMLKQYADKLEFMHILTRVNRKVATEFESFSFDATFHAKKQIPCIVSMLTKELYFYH

Test [5] addresses T3, Sentrin-specific protease 7 (Homo sapiens, UniProt Q9BQF6).
T3 sequence (Q9BQF6 whole entry): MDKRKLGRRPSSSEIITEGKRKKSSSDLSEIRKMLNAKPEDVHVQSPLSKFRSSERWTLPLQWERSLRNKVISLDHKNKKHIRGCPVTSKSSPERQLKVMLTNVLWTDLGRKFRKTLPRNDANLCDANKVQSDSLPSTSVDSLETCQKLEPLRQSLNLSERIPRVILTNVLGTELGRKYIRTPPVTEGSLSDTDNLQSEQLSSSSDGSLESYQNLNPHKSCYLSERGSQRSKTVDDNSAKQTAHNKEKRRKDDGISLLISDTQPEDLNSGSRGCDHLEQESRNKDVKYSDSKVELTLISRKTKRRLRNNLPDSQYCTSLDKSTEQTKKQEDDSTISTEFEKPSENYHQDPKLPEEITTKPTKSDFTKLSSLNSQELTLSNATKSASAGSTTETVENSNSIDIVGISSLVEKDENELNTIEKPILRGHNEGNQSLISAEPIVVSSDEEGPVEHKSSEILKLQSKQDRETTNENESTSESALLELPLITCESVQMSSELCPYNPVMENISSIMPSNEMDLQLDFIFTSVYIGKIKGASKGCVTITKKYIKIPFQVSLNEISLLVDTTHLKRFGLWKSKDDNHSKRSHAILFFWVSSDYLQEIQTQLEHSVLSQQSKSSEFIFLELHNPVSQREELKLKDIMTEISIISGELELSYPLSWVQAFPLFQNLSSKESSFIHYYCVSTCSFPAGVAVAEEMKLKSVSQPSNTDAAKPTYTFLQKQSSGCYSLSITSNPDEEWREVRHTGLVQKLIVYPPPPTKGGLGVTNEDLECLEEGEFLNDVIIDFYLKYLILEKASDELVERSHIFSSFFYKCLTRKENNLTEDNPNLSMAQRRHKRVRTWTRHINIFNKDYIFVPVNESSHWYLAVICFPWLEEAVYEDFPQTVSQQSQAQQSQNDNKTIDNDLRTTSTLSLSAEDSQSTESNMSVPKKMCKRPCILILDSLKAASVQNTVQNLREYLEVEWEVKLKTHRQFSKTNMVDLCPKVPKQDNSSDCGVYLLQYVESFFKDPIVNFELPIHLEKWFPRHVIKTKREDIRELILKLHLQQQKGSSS

Test [6] has as its target T4, Sentrin-specific protease 6 (Homo sapiens, UniProt Q9GZR1).
T4 sequence (Q9GZR1 whole entry): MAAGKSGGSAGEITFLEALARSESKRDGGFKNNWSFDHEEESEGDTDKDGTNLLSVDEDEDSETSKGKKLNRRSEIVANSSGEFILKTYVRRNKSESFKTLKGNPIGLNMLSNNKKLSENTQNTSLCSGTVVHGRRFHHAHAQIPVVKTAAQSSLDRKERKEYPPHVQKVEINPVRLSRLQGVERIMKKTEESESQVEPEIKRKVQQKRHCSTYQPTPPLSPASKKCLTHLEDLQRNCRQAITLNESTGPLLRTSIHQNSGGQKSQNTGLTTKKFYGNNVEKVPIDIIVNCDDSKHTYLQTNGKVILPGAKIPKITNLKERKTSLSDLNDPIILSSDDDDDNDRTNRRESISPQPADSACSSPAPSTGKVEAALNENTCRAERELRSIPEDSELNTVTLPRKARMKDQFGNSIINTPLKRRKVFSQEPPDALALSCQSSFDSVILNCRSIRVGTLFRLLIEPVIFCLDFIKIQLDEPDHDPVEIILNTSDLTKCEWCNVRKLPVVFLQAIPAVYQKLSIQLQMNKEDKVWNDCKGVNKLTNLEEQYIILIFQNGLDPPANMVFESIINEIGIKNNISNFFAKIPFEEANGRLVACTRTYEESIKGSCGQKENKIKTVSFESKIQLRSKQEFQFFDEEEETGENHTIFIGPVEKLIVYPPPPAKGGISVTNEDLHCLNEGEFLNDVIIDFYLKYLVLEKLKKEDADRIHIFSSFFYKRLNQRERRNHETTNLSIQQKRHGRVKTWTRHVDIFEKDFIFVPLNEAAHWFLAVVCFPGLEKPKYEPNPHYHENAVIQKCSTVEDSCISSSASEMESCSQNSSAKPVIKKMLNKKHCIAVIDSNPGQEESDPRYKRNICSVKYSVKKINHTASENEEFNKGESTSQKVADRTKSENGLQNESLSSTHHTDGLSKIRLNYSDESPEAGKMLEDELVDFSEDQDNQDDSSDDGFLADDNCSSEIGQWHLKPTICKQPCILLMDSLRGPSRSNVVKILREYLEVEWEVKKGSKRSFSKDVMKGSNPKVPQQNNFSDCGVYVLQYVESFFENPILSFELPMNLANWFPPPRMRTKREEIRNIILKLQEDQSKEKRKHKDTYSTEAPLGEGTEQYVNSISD

Test [7] addresses T5, Sentrin-specific protease 8 (Homo sapiens, UniProt Q96LD8).
T5 sequence (Q96LD8 whole entry): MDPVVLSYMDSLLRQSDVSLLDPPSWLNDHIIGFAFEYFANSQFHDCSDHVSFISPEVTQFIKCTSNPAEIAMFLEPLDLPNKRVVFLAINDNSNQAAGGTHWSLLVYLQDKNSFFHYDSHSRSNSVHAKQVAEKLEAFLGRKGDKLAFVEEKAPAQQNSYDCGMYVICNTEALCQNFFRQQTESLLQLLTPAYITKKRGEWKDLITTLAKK

The target of test [8] is T5, Sentrin-specific protease 8. Put plainly: inhibition of human SENP8 cleavage activity – biochemical, luminescence, SAR follow-up (AID 504501).
In test [9] the target is T2, Caspase-3. Put plainly: SAR Analysis of small molecule inhibitors of Sentrin-specific proteases (SENPs) using a Caspase-3 Selectivity assay. [Related pubchem assays (depositor defined):AID2540, AID2599, AID434973, AID489001].
Test [10] concerns the target T4, Sentrin-specific protease 6. The test is described as follows: SAR Analysis of small molecule inhibitors of Sentrin-specific protease 6 (SENP6) using a Luminescent assay. [Related pubchem assays (depositor defined):AID2582, AID2599].
Test [11] has as its target T3, Sentrin-specific protease 7. The test is described as follows: inhibition of human SENP7 cleavage activity – biochemical, luminescence, SAR follow-up (AID 504497).

One may read the IC50 as the concentration at which inhibition is half-maximal. `O=C(COc1ccccc1Br)c1ccc(O)cc1O`: the IC50 in [1] was 2.29 µM (active); in test [2], 11.2 µM (active).

On to `CC(C)(C)NCC(O)Cn1cc(C=O)c2ccccc21` (stereo not drawn), for which the figures for the half-maximal inhibitory concentration (IC50) in [1] and in [2] were 0.738 µM (active) and 0.113 µM (active), respectively.

As usually defined, the EC50 is the concentration that produces a half-maximal response. Turning to `O=C(O)c1ccc(N/N=C/c2cn(Cc3ccc(F)cc3)c3ccccc23)cc1`, the EC50 (in test [3]; with H4) was > 120 µM (not active) each time. Also, the half-inhibitory concentration (IC50) on Caspase-3 [4] is 89.1 µM (active); in test [5] it was 8.78 µM (active); in test [6], 7.91 µM (active); in [7], 12.4 µM (active); in [8], 6.77 µM (active); at Caspase-3 [9], 49.8 µM (active). The IC50 in test [10] is 6.8 µM (active); in [11], 5.08 µM (active).

On to `C(=N\Nc1ccccc1)/c1c[nH]c2ccccc12`, for which the IC50 in test [8] was > 99 µM (inactive); at Caspase-3 [9], > 99 µM (inactive); in test [10], > 99 µM (inactive); in test [11] it was 25.7 µM (active).
